Where “and” joins values, the source holds several entries; their conditions need not be identical. Identical values can stand only once. Like-named read-outs stand apart in the source and are kept apart here.
Assays:
[1] = system: P. falciparum female gametocytes; assay: P. falciparum Dual Gamete Formation Assay (Pf DGFA), female readout; settings: for Pf DGFA Female, Expt 1 / Pf DGFA Female, Expt 2 / Pf DGFA Female, Expt 3 / Pf DGFA Female, Expt 4: 1µM; for % inhibition Pf DGFA (female) 1 μM (±SEM): mean of four experiments; for inhibition at 1 µM: Plasmodium falciparum, read-out: % inhibition Pf DGFA (female) 1 μM (±SEM), 1 μM, mean of four experiments
[2] = system: P. berghei oocyst intensity in Anopheles stephensi mosquitoes; assay: P. berghei standard membrane feeding assay (Pb SMFA); settings: for Raw mosquito counts (oocysts per mosquito): one mosquito per cell; for Number of oocysts counted per mosquito (raw mosquito counts): individual mosquito
[3] = system: P. berghei ookinete development; assay: microbe, parasite or virus in culture; settings: Plasmodium berghei
[4] = system: P. falciparum female gametocytes; assay: P. falciparum female gametogenesis assay (Pf FGAA); settings: 1: YES; 0: NO
HepG2 cells [5] = assay: HepG2 cytotoxicity assay; settings: for IC50: Homo sapiens, HepG2, 48 h, read-out: IC50 HepG2; for Pb ODA (this manuscript) HepG2 cytoxicity: HepG2 cytotoxicity listed with the Pb ODA data set (this manuscript)
How it was run: (§1)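 Here viability after a 48 h compound incubation (37°C, humidified 5% CO2) is measured by fluorescence and expressed as percent inhibition, with doxorubicin at 50 μM and DMSO as the bounding controls.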

[6] = system: 3D7-strain P. falciparum asexual parasites; assay: P. falciparum asexual growth inhibition assay (Pf GIA); type: cell-based, Plasmodium falciparum; settings: Plasmodium falciparum
How it was run: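 0.25% parasitemia, 2% Hct, RPMI/HEPES/hypoxanthine/5% Albumax; compound dose response, 72 h, 37°C, 5% CO2, 5% O2, 90% N2. Freeze-thaw, then LDH assay, A650. % inhibition vs chloroquine (50 μM)/DMSO, mean of 3 independent runs.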

[7] = system: P. falciparum male gametocytes; assay: P. falciparum Dual Gamete Formation Assay (Pf DGFA), male readout; settings: for Pf DGFA Male, Expt 1 / Pf DGFA Male, Expt 2 / Pf DGFA Male, Expt 3 / Pf DGFA Male, Expt 4: 1µM; for % inhibition Pf DGFA (male) 1 μM (±SEM): mean of four experiments; for inhibition at 1 µM: Plasmodium falciparum, read-out: % inhibition Pf DGFA (male) 1 μM (±SEM), 1 μM, mean of four experiments
HepG2 cells [8] = settings: cited from earlier work
[9] = system: P. falciparum female gametocytes; design: method as in Miguel-Blanco et al 2017; settings: ref Miguel-Blanco et al 2017, read-out: Pf FGAA IC50, cited from earlier work
[10] = system: P. berghei ookinete development
HepG2 cytotoxicity assay = settings: human, HepG2 cells
How it was run: as §1

[11] = system: P. falciparum late stage (stages IV-V) gametocytes; design: method as in Almela et al 2016; settings: TCAMS screen comparison; ref Almela et al 2016; read-out: Pf GCT ATP IC50; cited from earlier work
[12] = read-out: % inhibition Pb SMFA 1 μM (±SEM), inhibition of oocyst intensity at 1 μM
[13] = read-out: % inhibition, Replicate A
[14] = read-out: % inhibition, Replicate B
[15] = read-out: IC50 Pb ODA, dose response, at least triplicate
[16] = 3D7, dose response confirmation, read-out: Pf asexual growth inhibition assays IC50
[17] = 3D7, 72 h, LDH readout, read-out: IC50 Pf Asexual
[18] = read-out: Pb Ookinete development assay IC50 (µM), dose response confirmation

## Cn1c(Sc2ncnc3sccc23)nc2ccccc21 [TCMDC-124514]
[1]
  Pf DGFA Female, Expt 1: 99.03
  Pf DGFA Female, Expt 2: 87.98
  Pf DGFA Female, Expt 3: 99.79
  Pf DGFA Female, Expt 4: 75.95
  % inhibition Pf DGFA (female) 1 μM (±SEM): 90.69%
  inhibition at 1 µM: 90.7%
[2]; inhibition of oocyst intensity at 1 μM
  % inhibition Pb SMFA 1 μM (±SEM): 9.1%
[2]; [12]
  inhibition at 1 µM: 9.07%
[3]; [13]
  inhibition at 1 µM: 109%
[3]; [14]
  inhibition at 1 µM: 101%
[3]; [15]
  IC50: 0.398 µM
[3]; read-out: Pb ODA IC50, this manuscript
  IC50: 0.4 µM
[4]
  Is compound selective in assay? Pf FGAA active?: 1 (1: YES)
HepG2 cells [5]; HepG2 values of the three screens unified
  Unified cytotox: 100.00 µM
HepG2 cells [5]
  IC50: > 100000 nM
[6]; [16]
  IC50: 187 nM
[6]; [17]
  IC50: 188 nM
[7]
  Pf DGFA Male, Expt 1: 96.96
  Pf DGFA Male, Expt 2: 90.56
  Pf DGFA Male, Expt 3: 99.40
  Pf DGFA Male, Expt 4: 95.50
  % inhibition Pf DGFA (male) 1 μM (±SEM): 95.61%
  inhibition at 1 µM: 95.6%
HepG2 cells [8]; HepG2, ref Miguel-Blanco et al 2017
  HepG2 cytoxicity (Pf FGAA screen): >100 µM
[9]
  IC50: 1250 nM
[10]; 1: YES, 0: NO
  Is compound selective in assay? Pb ODA active?: 1 (1: YES)
[10]; [15]
  IC50: > 250 nM and 397 nM

## CC[C@H]1CN2CCc3cc(OC)c(OC)cc3[C@@H]2C[C@@H]1C[C@H]1NCCc2cc(OC)c(OC)cc21 [TCMDC-125531]
[3]; [13]
  inhibition at 1 µM: 93.2%
[3]; [14]
  inhibition at 1 µM: 121%
[3]; read-out: Pb ODA IC50 (µM), this manuscript
  IC50: 0.21 µM
[3]; [18]
  IC50: 0.213 µM
HepG2 cytotoxicity assay
  IC50 at 48 h: 1550 nM
HepG2 cells [5]; human
  Unified cytotox: 10.78 µM
HepG2 cells [5]; value reported with the Pb ODA screen, this manuscript
  HepG2 cytoxicity: 1.55 µM
[6]; [16]
  IC50: 72 nM
HepG2 cells [8]; value reported with the Pf FGAA screen, ref Miguel-Blanco et al 2017
  HepG2 cytoxicity: 9.77 µM
HepG2 cells [8]; value reported with the Pf GCT ATP screen, ref Almela et al 2016
  HepG2 cytoxicity: 21.03 µM
[11]
  IC50: 350 nM
[9]; TCAMS screen comparison
  IC50: 2730 nM

## Cc1[nH]c(C)c(-c2ccc(CCc3ccc(F)cc3F)cc2)c(=O)c1Br [TCMDC-135461]
[1]
  Pf DGFA Female, Expt 1: 72.43
  Pf DGFA Female, Expt 2: 81.97
  Pf DGFA Female, Expt 3: -31.20
  Pf DGFA Female, Expt 4: -13.42
  % inhibition Pf DGFA (female) 1 μM (±SEM): 27.45%
  inhibition at 1 µM: 27.4%
[2]; Experiment 4, 10nM
  Mean (number of oocysts counted per mosquito): 0.78
  Prevalence: 45.65
[2]; Experiment 4, 100nM
  Mean (number of oocysts counted per mosquito): 0.00
  Raw mosquito counts (oocysts per mosquito): 0
[2]; Experiment 4, 1µM
  Mean (number of oocysts counted per mosquito): 0.00
  Prevalence: 0.00
  Raw mosquito counts (oocysts per mosquito): 0
[2]; Experiment 5, 10nM
  Mean (number of oocysts counted per mosquito): 2.70
  Prevalence: 45.65
[2]; Experiment 5, 100nM
  Mean (number of oocysts counted per mosquito): 1.53
  Number of oocysts counted per mosquito (raw mosquito counts): 0 and 1 and 3
[2]; Experiment 5, 1µM
  Mean (number of oocysts counted per mosquito): 0.00
  Prevalence: 0.00
  Number of oocysts counted per mosquito (raw mosquito counts): 0
  Raw mosquito counts (oocysts per mosquito): 0
[2]; Experiment 6, 10nM
  Mean (number of oocysts counted per mosquito): 58.31
  Prevalence: 98.15
[2]; Experiment 6, 100nM
  Mean (number of oocysts counted per mosquito): 21.75
  Prevalence: 86.76
  Number of oocysts counted per mosquito (raw mosquito counts): 30
[2]; Experiment 6, 1µM
  Mean (number of oocysts counted per mosquito): 0.00
  Prevalence: 0.00
  Number of oocysts counted per mosquito (raw mosquito counts): 0
  Raw mosquito counts (oocysts per mosquito): 0
[2]; read-out: % inhibition (oocyst intensity), Experiment 4, 100nM, vs DMSO
  inhibition at 0.1 µM: 100%
[2]; read-out: % inhibition (oocyst intensity), Experiment 4, 1µM, vs DMSO
  inhibition at 1 µM: 100%
[2]; read-out: % inhibition (oocyst intensity), Experiment 5, 10nM, vs DMSO
  inhibition at 0.01 µM: 28.9%
[2]; read-out: % inhibition (oocyst intensity), Experiment 5, 100nM, vs DMSO
  inhibition at 0.1 µM: 59.6%
[2]; read-out: % inhibition (oocyst intensity), Experiment 5, 1µM, vs DMSO
  inhibition at 1 µM: 100%
[2]; read-out: % inhibition (oocyst intensity), Experiment 6, 10nM, vs DMSO
  inhibition at 0.01 µM: 30.5%
[2]; read-out: % inhibition (oocyst intensity), Experiment 6, 100nM, vs DMSO
  inhibition at 0.1 µM: 74.1%
[2]; read-out: % inhibition (oocyst intensity), Experiment 6, 1µM, vs DMSO
  inhibition at 1 µM: 100%
[2]; [12]
  inhibition at 1 µM: 100%
[2]; read-out: % prev inhibition, Experiment 4, 1µM, vs DMSO
  inhibition at 1 µM: 100%
[2]; read-out: % prev inhibition, Experiment 5, 1µM, vs DMSO
  inhibition at 1 µM: 100%
[2]; read-out: % prev inhibition, Experiment 6, 10nM, vs DMSO
  inhibition at 0.01 µM: 1.85%
[2]; read-out: % prev inhibition, Experiment 6, 100nM, vs DMSO
  inhibition at 0.1 µM: 13.2%
[2]; read-out: % prev inhibition, Experiment 6, 1µM, vs DMSO
  inhibition at 1 µM: 100%
[2]; read-out: inhibition of oocyst intensity Pb SMFA, 10 nM
  inhibition at 0.01 µM: 43%
[2]; read-out: inhibition of oocyst intensity Pb SMFA, 100 nM
  inhibition at 0.1 µM: 77.9%
[3]; [13]
  inhibition at 1 µM: 68.3%
[3]; [14]
  inhibition at 1 µM: 109%
[3]; [15]
  IC50: < 0.0002 µM
HepG2 cells [5]
  Pb ODA (this manuscript) HepG2 cytoxicity: 100.00 µM
  IC50: > 100000 nM
[6]; [16]
  IC50: 3 nM
[6]; [17]
  IC50: 3.1 nM
[7]
  Pf DGFA Male, Expt 1: 97.72
  Pf DGFA Male, Expt 2: 60.95
  Pf DGFA Male, Expt 3: 69.63
  Pf DGFA Male, Expt 4: 73.29
  inhibition at 1 µM: 75.4%
[10]
  Is compound selective in assay? Pb ODA active?: 1 (key: 1: YES; 0: NO)

## CCCCCCCc1c(C)nc2cc(OC)ccc2c1O [TCMDC-137173, endochin]
[1]
  Pf DGFA Female, Expt 1: 46.16
  Pf DGFA Female, Expt 2: 7.10
  Pf DGFA Female, Expt 3: 41.06
  Pf DGFA Female, Expt 4: -10.25
  % inhibition Pf DGFA (female) 1 μM (±SEM): 21.02%
  inhibition at 1 µM: 21%
[2]; [12]
  inhibition at 1 µM: 98.4%
[3]; [13]
  inhibition at 1 µM: 115%
[3]; [14]
  inhibition at 1 µM: 101%
[3]; [15]
  IC50: < 0.06 µM
[3]; read-out: Pb ODA (this manuscript) IC50 (µM), P. berghei ookinete development assay, this manuscript
  IC50: 0.0248 µM
[3]; [18]
  IC50: 0.025 µM
HepG2 cells [5]
  Pb ODA (this manuscript) HepG2 cytoxicity: 100.00 µM
  IC50: > 100000 nM
[6]; [16]
  IC50: 35 nM
[6]; [17]
  IC50: 35.2 nM
[7]
  Pf DGFA Male, Expt 1: 94.68
  Pf DGFA Male, Expt 2: 60.36
  Pf DGFA Male, Expt 3: 74.13
  Pf DGFA Male, Expt 4: 77.74
  % inhibition Pf DGFA (male) 1 μM (±SEM): 76.7% and 76.73%
  inhibition at 1 µM: 76.7%
[10]
  Is compound selective in assay? Pb ODA active?: 1 (key: 1: YES; 0: NO)
